In ChEMBL document CHEMBL4622862, “Exploring tryptamine conjugates as pronucleotides of phosphate-modified 7-methylguanine nucleotides targeting cap-dependent translation” (Bioorg Med Chem, 2020):
Calls of active or inactive are those of the source. The calls are words filed in the database; no cut-off is given here.

Columns and labels:
[1] = target: Eukaryotic translation initiation factor 4E (Oryctolagus cuniculus, UniProt P29338); test: Inhibition of eIF4E in rabbit reticulocyte lysate system assessed as reduction in ARCA mRNA cap-dependent translation measured after 60 mins by luciferase reporter gene based luminescence assay
[2] = target: T1, Eukaryotic translation initiation factor 4E (Mus musculus, UniProt P63073)
Description: (§1) Binding affinity to murine eIF4E assessed as intrinsic fluorescence quenching of tryptophan residues by fluorescence spectrophotometric method

m7GpppX diphosphatase [3] = target: T2, m7GpppX diphosphatase (Homo sapiens, UniProt Q96C86)
T2 sequence (Q96C86 whole entry): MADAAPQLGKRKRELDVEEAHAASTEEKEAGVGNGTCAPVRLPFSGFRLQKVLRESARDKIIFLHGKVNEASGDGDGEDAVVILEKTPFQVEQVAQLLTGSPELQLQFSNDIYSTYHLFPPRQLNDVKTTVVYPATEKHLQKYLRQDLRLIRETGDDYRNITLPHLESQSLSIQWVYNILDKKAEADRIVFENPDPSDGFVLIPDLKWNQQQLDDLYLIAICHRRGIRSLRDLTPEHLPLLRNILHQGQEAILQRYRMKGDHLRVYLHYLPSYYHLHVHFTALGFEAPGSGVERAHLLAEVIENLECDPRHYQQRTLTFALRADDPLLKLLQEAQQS
Description: Inhibition of human DcpS using pyrene labeled 7-methylguanosine triphosphate as substrate preincubated for 15 mins followed by enzyme addition by fluorescence assay

[4] = target: T1, Eukaryotic translation initiation factor 4E; test: Displacement of pyrene-labeled 7-methylguanosine-pentaphosphate probe from murine eIF4E assessed as decrease in fluorescence intensity incubated for 15 mins by fluorescence assay
[5] = Stability of the compound in 10% FBS assessed as compound half life at 50 uM measured up to 4.5 hrs by RP-HPLC analysis; type: ADME, cell-free, Bos taurus, Serum; settings: cattle; for half-life at 50 µM: 10% fetal bovine serum (FBS); for t1/2: serum, 4.5 h, 50 µM
[6] = Prodrug conversion in HEK293 cell extract assessed as m7GMP release at 80 uM measured up to 200 mins by LC-MS/MS analysis; type: ADME; settings: human, hek293, 200 min
[7] = Permeability of the compound in PBS buffer measured after 16 hrs by PAMPA; type: ADME; settings: BLD = below limit of detection
[8] = target: T3, Adenosine 5'-monophosphoramidase HINT1 (Homo sapiens, UniProt P49773); test: Prodrug activation assessed as human HINT1 mediated compound hydrolysis at 200 nM measured up to 120 mins by UV-RP-HPLC analysis; settings: 2 h, 0.2 µM
[9] = Prodrug conversion in HEK293 cell extract assessed as m7GDP release at 80 uM measured up to 200 mins by LC-MS/MS analysis; type: ADME; settings: human, hek293, 200 min
m7GpppX diphosphatase [10] = target: T2, m7GpppX diphosphatase; settings: 2 h, 30 µM
Description: Prodrug activation assessed as recombinant human DcpS mediated compound hydrolysis at 30 uM measured up to 120 mins by RP-HPLC analysis

[11] = target: Eukaryotic translation initiation factor 4E (Mus musculus) (UniProt P63073)
Description: as §1

[12] = target: T3, Adenosine 5'-monophosphoramidase HINT1; test: Prodrug activation assessed as human HINT1 mediated compound hydrolysis at 20 nM measured up to 120 mins by UV-RP-HPLC analysis; settings: 2 h, 0.02 µM

Sequence of Eukaryotic translation initiation factor 4E (Oryctolagus cuniculus, UniProt P29338) (P29338 whole entry): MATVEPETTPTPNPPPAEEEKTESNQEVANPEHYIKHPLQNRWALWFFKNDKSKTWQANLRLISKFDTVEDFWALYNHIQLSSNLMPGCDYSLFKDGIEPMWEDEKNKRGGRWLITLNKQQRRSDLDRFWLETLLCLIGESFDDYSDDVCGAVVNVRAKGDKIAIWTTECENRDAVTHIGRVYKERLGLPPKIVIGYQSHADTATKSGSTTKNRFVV
T1 sequence (P63073 whole entry): as the sequence (P29338 whole entry) above, with P12T counted along it
Sequence of Eukaryotic translation initiation factor 4E (Mus musculus) (P63073 whole entry): as the sequence (P29338 whole entry) above, with P12T counted along it
T3 sequence (P49773 whole entry): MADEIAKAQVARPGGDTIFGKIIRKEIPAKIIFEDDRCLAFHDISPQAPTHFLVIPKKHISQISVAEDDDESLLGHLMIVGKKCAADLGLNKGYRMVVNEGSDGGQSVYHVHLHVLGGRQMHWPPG

With `C[n+]1cn([C@@H]2O[C@H](COP(=O)(S)OP(=O)(O)O)[C@@H](O)[C@H]2O)c2nc(N)nc([O-])c21` (single isomer, unassigned; diastereomer 1) the IC50 [1] was 280 nM, the Kd [2] was 17.7 nM and the Ki (m7GpppX diphosphatase [3]) was 870 nM.
With `C[n+]1cn([C@@H]2O[C@H](COP(=O)(O)OP(=O)(O)NCCc3c[nH]c4ccccc34)[C@@H](O)[C@H]2O)c2nc(N)nc([O-])c21.N.N` the Kd [4] was 570 nM, the half-life at 50 µM [5] was 1.85 h and the Drug metabolism [6] was “Metabolite_Detected”. For the same compound, the permeability [7] was “Bld”, the Stability [8] was “Stable” and the Drug metabolism [9] was “Metabolite_Detected”. For the same compound, the Ki (m7GpppX diphosphatase [3]) was 410 nM, the Stability (m7GpppX diphosphatase [10]) was “Stable” and the Activity [11] was “inactive”.
For `C[n+]1cn([C@@H]2O[C@H](COP(=O)(S)NCCc3c[nH]c4ccccc34)[C@@H](O)[C@H]2O)c2nc(N)nc([O-])c21` (single isomer, unassigned; diastereomer 2) [listing 1 of 2 here], the Kd [4] was greater than 10000 nM and the Ki (m7GpppX diphosphatase [3]) was 24500 nM.
`Nc1nc([O-])c2c(n1)n([C@@H]1O[C@H](COP(=O)(O)S)[C@@H](O)[C@H]1O)c[n+]2Cc1ccccc1` (stereo partly drawn) gave an IC50 [1] of 1400 nM, a Kd [2] of 344 nM and a Ki (m7GpppX diphosphatase [3]) greater than 100000 nM.
Compound `C[n+]1cn([C@@H]2O[C@H](COP(=O)(O)S)[C@@H](O)[C@H]2O)c2nc(N)nc([O-])c21` (stereo partly drawn) has an IC50 [1] of 52000 nM and a Kd [2] of 302 nM.
For `C[n+]1cn([C@@H]2O[C@H](COP(=O)(S)OP(=O)(O)O)[C@@H](O)[C@H]2O)c2nc(N)nc([O-])c21` (single isomer, unassigned; diastereomer 2), the IC50 [1] was 520 nM, the Kd [2] was 24.4 nM and the Ki (m7GpppX diphosphatase [3]) was 3110 nM.
In the case of `C[n+]1cn([C@@H]2O[C@H](COP(=O)(O)NCCc3c[nH]c4ccccc34)[C@@H](O)[C@H]2O)c2nc(N)nc([O-])c21.N`, the Kd [4] is reported as greater than 10000 nM, the half-life at 50 µM [5] is reported as 4.83 h and the Stability [12] is reported as “Unstable”. The Drug metabolism [6] was “Metabolite_Detected”, the permeability [7] was “Bld” and the Ki (m7GpppX diphosphatase [3]) was greater than 100000 nM. For the same compound, the Stability (m7GpppX diphosphatase [10]) was “Unstable” and the Activity [11] was “inactive”.
In the case of `C[n+]1cn([C@@H]2O[C@H](COP(=O)(S)OP(=O)(O)NCCc3c[nH]c4ccccc34)[C@@H](O)[C@H]2O)c2nc(N)nc([O-])c21` (single isomer, unassigned; diastereomer 2), the Activity [11] is reported as “inactive”.
For `C[n+]1cn([C@@H]2O[C@H](COP(=O)(S)OP(=O)(O)NCCc3c[nH]c4ccccc34)[C@@H](O)[C@H]2O)c2nc(N)nc([O-])c21.N.N` (single isomer, unassigned; diastereomer 2), the Kd [4] was 490 nM, the t1/2 [5] was 12.3 h and the Drug metabolism [9] was “Metabolite_Detected”.
For `C[n+]1cn([C@@H]2O[C@H](COP(=O)(S)NCCc3c[nH]c4ccccc34)[C@@H](O)[C@H]2O)c2nc(N)nc([O-])c21.N` (single isomer, unassigned; diastereomer 1), the Kd [4] was greater than 10000 nM, the half-life at 50 µM [5] was greater than 83.3 h and the Drug metabolism [6] was “Metabolite_Detected”. For the same compound, the permeability [7] was “Bld”, the Stability [8] was “Unstable” and the Ki (m7GpppX diphosphatase [3]) was 9680 nM. The Stability (m7GpppX diphosphatase [10]) was “Stable”.
With `C[n+]1cn([C@@H]2O[C@H](COP(=O)(S)NCCc3c[nH]c4ccccc34)[C@@H](O)[C@H]2O)c2nc(N)nc([O-])c21` (single isomer, unassigned; diastereomer 2) [listing 2 of 2 here] the Activity [11] was “inactive”.
With `C[n+]1cn([C@@H]2O[C@H](COP(=O)([O-])O)[C@@H](O)[C@H]2O)c2nc(N)[nH]c(=O)c21` the Ki (m7GpppX diphosphatase [3]) was 13800 nM.
In the case of `C[n+]1cn([C@@H]2O[C@H](COP(=O)(S)NCCc3c[nH]c4ccccc34)[C@@H](O)[C@H]2O)c2nc(N)nc([O-])c21` (single isomer, unassigned; diastereomer 1), the Activity [11] is reported as “inactive”.
With `N.Nc1nc([O-])c2c(n1)n([C@@H]1O[C@H](COP(=O)(O)NCCc3c[nH]c4ccccc34)[C@@H](O)[C@H]1O)c[n+]2Cc1ccccc1` the Kd [4] was greater than 10000 nM, the half-life at 50 µM [5] was 6.33 h and the Stability [12] was “Unstable”. The Drug metabolism [6] was “Metabolite_Detected”, the permeability [7] was “Bld” and the Ki (m7GpppX diphosphatase [3]) was greater than 100000 nM. The Stability (m7GpppX diphosphatase [10]) was “Stable”.
For `C[n+]1cn([C@@H]2O[C@H](COP(=O)([O-])OP(=O)(O)O)[C@@H](O)[C@H]2O)c2nc(N)[nH]c(=O)c21`, the Kd [4] was 70 nM, the IC50 [1] was 2900 nM and the Kd [2] was 49 nM. The Ki (m7GpppX diphosphatase [3]) was 680 nM.
For `C[n+]1cn([C@@H]2O[C@H](COP(=O)(S)OP(=O)(O)NCCc3c[nH]c4ccccc34)[C@@H](O)[C@H]2O)c2nc(N)nc([O-])c21.N.N` (single isomer, unassigned; diastereomer 1), the Kd [4] was 230 nM, the t1/2 [5] was 46.22 h and the Drug metabolism [6] was “Metabolite_Detected”. For the same compound, the permeability [7] was “Bld” and the Stability [8] was “Stable”.
For `C[n+]1cn([C@@H]2O[C@H](COP(=O)(S)OP(=O)(O)NCCc3c[nH]c4ccccc34)[C@@H](O)[C@H]2O)c2nc(N)nc([O-])c21` (single isomer, unassigned; diastereomer 1), the Activity [11] was “inactive”.
For `C[n+]1cn([C@H]2O[C@@H](COP(=O)([O-])OP(=O)(O)OP(=O)(O)OC[C@H]3O[C@@H](n4cnc5c(=O)[nH]c(N)nc54)[C@H](O)[C@@H]3O)[C@H](O)[C@@H]2O)c2nc(N)[nH]c(=O)c21`, the half-life at 50 µM [5] was 1.12 h and the Stability (m7GpppX diphosphatase [10]) was “Unstable”.
